Measurements: patent US4081548A, “Antibiotics” (Merck & Co., Inc., priority 1976, dated 1978)
Values after ≈ are worked out from the molar mass of the structure shown.

Tests used:
Staph. aureus 2949 = test: in vivo efficacy in infected mice, Table 3; set-up: species or system Staphylococcus aureus; conditions: 168 h, day 7 survival
Protocol: (§1) In determining the in vivo activity, thienamycin is dissolved in and diluted with 0.15M NaCl, 0.01M sodium phosphate, pH 7.0, to provide five fourfold concentrations of drug for testing. Female white Swiss mice, averaging about 21 g. in weight, were infected intraperitoneally and subcutaneously with the test organism suspended in broth. The numbers of organisms injected were determined by standard plate-count techniques. At the time of infection, and again 6 hours later, certain of the mice were treated intraperitoneally, subcutaneously and orally with the antibiotic. Five mice were used for each concentration of drug tested. An additional two mice, not infected, were treated with the antibiotic to determine whether the amount of agent injected was toxic. Controls of five mice for each of several dilutions of the infecting culture were included in each test in order to calculate the numbers of organisms that were lethal to 50% of the infected, untreated mice (LD50). This calculation was made using survival data of the seventh day after infection, at which time the amount of drug that should protect 50% of the infected mice (ED50) also was calculated.
(§2) All animals receiving this challenge and not treated with antibiotic died within 48 hours of the infection. The efficacy of thienamycin having a potency of 30,000 units per mg. is recorded in Table 3: […]

[1] = system: Staphylococcus aureus ATCC 6538P; test: disc-diffusion assay of antibacterial activity (5 ml plates); assay type: cell-based; conditions: one unit = same inhibition as 1 μg. of cephalothin/ml.
Protocol: Assays of antibacterial activity are run according to the following disc-diffusion procedure unless otherwise indicated. The assay plates are prepared in the following manner. An overnight growth of the assay organism, Staphylococcus aureus ATCC 6538P, in nutrient broth plus 0.2% yeast extract is diluted with nutrient broth plus 0.2% yeast extract to a suspension having 55% transmittance at a wavelength of 660 mμ. This suspension is added to Difco nutrient agar supplemented with 2.0 g./l. Difco yeast extract, at 47° C. to 48° C., to make a composition containing 33.2 ml. of the suspension per liter of agar. Five ml. of this suspension is poured into petri dishes of 85 mm. diameter, and these plates are chilled and held at 4° C. until used (5 day maximum).
Samples of the antibiotic to be assayed are diluted to an appropriate concentration in phosphate buffer at pH 7. Filter-paper discs, 0.5-inch in diameter, are dipped into the test solution and placed on the surface of the assay plate; two discs for each sample are normally placed on one plate opposite to one another. The plates are incubated overnight at 37° C. and the zone of inhibition is measured as mm. diameter. The zone of inhibition measured in mm. determines relative potencies or, when compared with a purified reference standard such as cephalothin, the potency of antibiotic in units/ml. The unit of activity reported in Examples 4 through 7 is based on cephalothin standard solutions of 8, 4, 2 and 1 μg./ml. One unit is defined as the amount which calculates to produce the same inhibition as 1 μg. of cephalothin/ml. that zone of inhibition being between 16 and 21 mm. diameter.

[2] = Hydroxylamine-Extinguishable Absorbance; assay type: physicochemical; conditions: pure thienamycin; 10 mM. hydroxylamine, pH 7.0, room temperature, at least 30 min., 297 nm
Protocol: The proportion of absorbance measured at 297 nm which can be attributed to the antibiotic content in impure samples is determined by the selective extinction of this absorbance (with concommitant inactivation of antibiotic activity) upon reaction with dilute hydroxylamine.
Samples are prepared in 0.01M potassium phosphate buffer at pH 7.0 to have an initial A297 between 0.05 and 2.0. Freshly prepared, neutral hydroxylamine (NH2 OH.HCl plus NaOH to a final pH of 7) is added to a final concentration of 10 mM., and reaction is allowed to progress at room temperature for at least 30 min. The resulting A297 when substracted from the initial reading (after correction for dilution by added reagent) yields the hydroxylamine-extinguishable absorbance. Solutions of pure thienamycin show a hydroxylamine-extinguishable absorbance of 94.5%.

[3] = pKa from pH induced shift in ultraviolet absorption spectrum; assay type: physicochemical; conditions: acidic function; 30 mM. phosphate buffer; read-out: pKa1
Protocol: Thienamycin is an internally neutralized amphoteric substance, whose acidic function has a pKa1 = 3.08 when measured in 30 mM. phosphate buffer, taking advantage of the pH induced shift in ultraviolet absorption spectrum.

Klebsiella 2921 = test: agar dilution method, Table 2; assay type: cell-based; conditions: Mueller-Hinton agar, 18 hours, 37° C., strain resistance: P, read-out: Minimum Inhibitory Concentration
Protocol: (§3) A further evaluation of substantially pure antibiotic employed the agar dilution method. An inoculum of 2 × 10^4 to 1 × 10^5 organisms is applied as a 0.002 ml. droplet to the surface of Mueller-Hinton agar containing serial, twofold dilutions of antibiotic over the range 0.01 to 73 μg./ml. The results (Table 2) are reported as the minimum inhibitory concentration, in μg./ml., that being the lowest antibiotic concentration at which the growth of the test organism is inhibited over a period of 18 hours at 37° C.

Escherichia coli 2964 = test: agar dilution method, Table 2; assay type: cell-based; conditions: Mueller-Hinton agar, 18 hours, 37° C., strain resistance: P, read-out: Minimum Inhibitory Concentration
Protocol: as §3

Serratia 2840 = test: agar dilution method, Table 2; assay type: cell-based; conditions: Mueller-Hinton agar, 18 hours, 37° C., strain resistance: P, read-out: Minimum Inhibitory Concentration
Protocol: as §3

[4] = system: Staphylococcus aureus 2314; test: agar dilution method, Table 2; assay type: cell-based; conditions: Mueller-Hinton agar, 18 hours, 37° C., strain resistance: P, read-out: Minimum Inhibitory Concentration
Protocol: as §3

Proteus mirabilis 2830 = test: agar dilution method, Table 2; assay type: cell-based; conditions: Mueller-Hinton agar, 18 hours, 37° C., strain resistance: P, read-out: Minimum Inhibitory Concentration
Protocol: as §3

Escherichia coli 2482 = test: agar dilution method, Table 2; assay type: cell-based; conditions: Mueller-Hinton agar, 18 hours, 37° C., strain resistance: --, read-out: Minimum Inhibitory Concentration
Protocol: as §3

[5] = system: Pseudomonas aeruginosa 3210; test: agar dilution method, Table 2; assay type: cell-based; conditions: Mueller-Hinton agar, 18 hours, 37° C., strain resistance: P, read-out: Minimum Inhibitory Concentration
Protocol: as §3

Klebsiella 2922 = test: agar dilution method, Table 2; assay type: cell-based; conditions: Mueller-Hinton agar, 18 hours, 37° C., strain resistance: P, read-out: Minimum Inhibitory Concentration
Protocol: as §3

[6] = system: Pseudomonas aeruginosa 2824; test: agar dilution method, Table 2; assay type: cell-based; conditions: Mueller-Hinton agar, 18 hours, 37° C., strain resistance: P, read-out: Minimum Inhibitory Concentration
Protocol: as §3

Escherichia coli 2017 = test: agar dilution method, Table 2; assay type: cell-based; conditions: Mueller-Hinton agar, 18 hours, 37° C., strain resistance: --, read-out: Minimum Inhibitory Concentration
Protocol: as §3

[7] = system: Pseudomonas aeruginosa 2616; test: agar dilution method, Table 2; assay type: cell-based; conditions: Mueller-Hinton agar, 18 hours, 37° C., strain resistance: P, read-out: Minimum Inhibitory Concentration
Protocol: as §3

β-lactamase = β-lactamase (Enterobacter cloacae, UniProt P05364); test: exposure to β-lactamase preparations; assay type: biochemical; conditions: β-lactamase from sonic disintegration of a strain of Enterobacter cloacae
Text: Finally, antibiotic activity and absorbance are extinguished on exposure to preparations of β-lactamase obtained by the sonic disintegration of a strain of Enterobacter cloacae.

solubility = assay type: physicochemical
[8] = stability in aqueous solution; assay type: physicochemical
inactivation by cysteine = assay type: physicochemical; conditions: cysteine 4 μmoles per ml., pH 7.0, 20° C.
E. coli 2017 = test: in vivo efficacy in infected mice, Table 3; conditions: Escherichia coli, 2017, ip, 168 h, i.p. x2 (at infection and 6 hours later), No. LD50 9, day 7 survival
Protocol: as §1, §2

[9] = system: Pseudomonas aeruginosa 3210; test: in vivo efficacy in infected mice, Table 3; conditions: 168 h, No. LD50 7, day 7 survival
Protocol: as §1, §2

Chain of β-lactamase (P05364 21-381): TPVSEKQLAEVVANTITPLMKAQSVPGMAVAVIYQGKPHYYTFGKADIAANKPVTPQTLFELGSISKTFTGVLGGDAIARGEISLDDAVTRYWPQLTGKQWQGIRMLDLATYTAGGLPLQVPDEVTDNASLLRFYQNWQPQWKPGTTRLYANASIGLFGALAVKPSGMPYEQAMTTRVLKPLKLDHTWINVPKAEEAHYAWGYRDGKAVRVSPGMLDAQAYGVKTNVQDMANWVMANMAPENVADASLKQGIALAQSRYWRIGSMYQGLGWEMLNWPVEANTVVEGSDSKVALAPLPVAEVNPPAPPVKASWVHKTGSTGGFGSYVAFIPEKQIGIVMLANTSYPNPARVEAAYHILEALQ

SMILES: C[C@@H](O)[C@H]1C(=O)N2C(C(=O)O)=C(SCCN)C[C@H]12 [Thienamycin, thienamycin]
- ED50 (Staph. aureus 2949; Staphylococcus aureus, 2949, ip, mice, i.p. x2 (at infection and 6 hours later), No. LD50 7): 0.012 mg/kg
- ED50 (Staph. aureus 2949; Staphylococcus aureus, 2949, po, mice fasted 24 hours, p.o. x2 (at infection and 6 hours later), No. LD50 13): 0.67 mg/kg
- ED50 (Staph. aureus 2949; Staphylococcus aureus, 2949, sc, mice, s.c. x2 (at infection and 6 hours later), No. LD50 7): 0.08 mg/kg
- potency (estimated / calculated) ([1]; estimated or calculated potency): 30,140 units/mg.
- potency [1]: 30,000 units/mg.
- hydroxylamine-extinguishable absorbance [2]: 94.5%
- pKa [3]: 3.08
- MIC (Klebsiella 2921): 0.3 mg/L (≈ 1.1 µM)
- MIC (Escherichia coli 2964): 0.3 mg/L (≈ 1.1 µM)
- MIC (Serratia 2840): 4.7 mg/L (≈ 17.3 µM)
- MIC [4]: 0.02 mg/L (≈ 0.0734 µM)
- MIC (Proteus mirabilis 2830): 4.7 mg/L (≈ 17.3 µM)
- MIC (Escherichia coli 2482): 0.3 mg/L (≈ 1.1 µM)
- MIC [5]: 2.4 mg/L (≈ 8.81 µM)
- MIC (Klebsiella 2922): 0.3 mg/L (≈ 1.1 µM)
- MIC [6]: 0.6 mg/L (≈ 2.2 µM)
- MIC (Escherichia coli 2017): 0.15 mg/L (≈ 0.551 µM)
- MIC [7]: 4.7 mg/L (≈ 17.3 µM)
- antibiotic activity and absorbance on exposure to β-lactamase (β-lactamase): extinguished
- solubility in methanol (solubility; methanol): limited solubility in methanol
- solubility in water (solubility; water): very soluble in water
- half-life ([8]; 1 mg./ml. in 10 mM. potassium phosphate, pH 7.0, 0° C.): 53300 min
- half-life ([8]; 1 mg./ml. in water (pH 7.0), 0° C.): 28800 min
- half-life ([8]; 12 mg./ml. in 10 mM. phosphate buffer, 10° C.): 4320 min
- coloration on storage ([8]; 12 mg./ml. in 10 mM. phosphate buffer, 10° C., by the 48th hour, initially pale yellow): deep amber coloration
- half-life ([8]; aqueous solution, pH 8.2, 30° C.): 10 min
- stability in aqueous solution ([8]; below 1 mg./ml., phosphate buffers, pH between 6 and 7): optimum stability
- half-life ([8]; pH 2.0, 30 mM. phosphate buffer, room temperature): 6.7 min
- half-life ([8]; pH 3.0, 30 mM. phosphate buffer, room temperature): 30 min
- half-life ([8]; pH 4.0, 30 mM. phosphate buffer, room temperature): 346 min
- half-life ([8]; pH 8.8 (borate buffer), 30° C.): 5.7 min
- half-life ([8]; pH 12 (0.01M sodium hydroxide), 30° C.): 2.1 min
- half-life (inactivation by cysteine): 2.5 min
- ED50 (E. coli 2017): 0.375 mg/kg
- ED50 ([9]; Pseudomonas aeruginosa, 3210, ip, i.p. x3 (at infection, 2 and 4 hours)): 0.45 mg/kg
- ED50 ([9]; Pseudomonas aeruginosa, 3210, sc, s.c. x3 (at infection, 2 and 4 hours)): 2.05 mg/kg
